Reference: ChEMBL document CHEMBL3507680, “University of Dundee, Gates Library screen for HepG2 cell viability”

Assay: Human HepG2 cell viability assay in 384 well format
Assay type: toxicity, cell-based
Parameters: dose 125 nL, time 70.5 hour; cytotoxicity at 70.5 h: concentration not given beside the values
Conditions: HepG2 cells, read-out: Inhibition

O=C(O)[C@@H]1CN(C(=O)c2ccc3[nH]nnc3c2)C[C@H]1c1ccccc1
cytotoxicity at 70.5 h: -4.96%

CC(C)N1CCCC(C(=O)N2CCN(c3cccc(C(=O)O)c3)CC2)C1 (stereo not given)
cytotoxicity at 70.5 h: 23.2%

O[C@@H]1CN(c2nc3ccccc3o2)CC[C@H]1c1ccc2c(c1)OCO2
cytotoxicity at 70.5 h: 14.9%

CN1CCCCCC1C(=O)N1CCN(c2ccccc2C#N)CC1 (stereo not given)
cytotoxicity at 70.5 h: -8.6%

N#Cc1cccc(NC(=O)N2CCC3(CCC(=O)N(C4CC4)C3)CC2)c1
cytotoxicity at 70.5 h: -2.97%

CCCN1CCC(N2CCC(Cn3cc(C4CC4)nn3)CC2)CC1
cytotoxicity at 70.5 h: -8.35%

Nc1nc2c(c(N3CCOCC3)n1)CCN(C(=O)c1ccc[nH]1)CC2
cytotoxicity at 70.5 h: -7.85%

CCCc1nnc(N2CCCC(c3nnc(Cn4ccnc4)n3C)C2)s1 (stereo not given)
cytotoxicity at 70.5 h: -2.6%

Cc1nc(CNc2nc3c(s2)c(C)nn3C)cs1
cytotoxicity at 70.5 h: -8.75%

O=C(NCCc1cc(=O)[nH]cn1)c1[nH]nc2c1CCCC2
cytotoxicity at 70.5 h: -5.79%

COCC(=O)N[C@H]1C[C@@H](C(=O)NCCc2cccc(Cl)c2)N(C)C1
cytotoxicity at 70.5 h: -13.3%

CCn1c(C2CCN(C(=O)CCc3cc(Cl)no3)CC2)nn(C)c1=O
cytotoxicity at 70.5 h: -6.98%

CN1C(=O)c2ccc(C(=O)N(Cc3cnn(C)c3)C3CC3)cc2C1=O
cytotoxicity at 70.5 h: -16.5%

O=C(NC1CCOCC1)C1CC(=O)N(Cc2ccccn2)C1 (stereo not given)
cytotoxicity at 70.5 h: -2.88%

O=C(CSc1ccccc1)N1CCc2c(ncnc2N2CCOCC2)C1
cytotoxicity at 70.5 h: 0.558%

CC(C)n1cnnc1Cn1c(=O)cnc2ccccc21
cytotoxicity at 70.5 h: -4.23%

Cc1nc[nH]c1-c1nccn1CCN1CCOC1=O
cytotoxicity at 70.5 h: -8.03%

COc1nc(C)c(C(=O)NCc2cc(N3CCOCC3)ncn2)s1
cytotoxicity at 70.5 h: -2.68%

CC1=C(C(=O)NCc2cccnc2-n2cnc3ccccc32)OCCO1
cytotoxicity at 70.5 h: -0.825%

Cc1cccc(C(C(=O)NCC2(O)CCCCC2)N(C)C)c1 (stereo not given)
cytotoxicity at 70.5 h: 14.2%

CCCc1nc(CN(CC)C(=O)c2ccc(OC)c(OC)c2)no1
cytotoxicity at 70.5 h: 25.6%

CC(C)(C)CN1CCC(c2nnc(Cn3ccnc3)n2C2CC2)CC1
cytotoxicity at 70.5 h: -3.87%

CCC[C@H]1CN(c2nc(CO)cs2)C[C@@H]1NC(=O)C1CCC1
cytotoxicity at 70.5 h: -5.73%

Cc1ccccc1CC1(CO)CCCN(c2ncnc3sccc23)C1 (stereo not given)
cytotoxicity at 70.5 h: 31.4%

COc1ccc2nc(CCNC(=O)c3cc(CC(C)C)no3)[nH]c2c1
cytotoxicity at 70.5 h: -15.4%

CC(=O)NCC1CCC2(CCN(c3ncc(C(C)=O)c(C)n3)CC2)O1 (stereo not given)
cytotoxicity at 70.5 h: -2.5%

Cc1nc(NCC(O)CN2CCCCCC2)c2c(C)nn(C)c2n1 (stereo not given)
cytotoxicity at 70.5 h: -8.64%

Cc1nc(NC(=O)N2CCCC(C(F)(F)F)C2)nn1C (stereo not given)
cytotoxicity at 70.5 h: -8%

CN(C)CCN(C)C1CCN(C(C(=O)O)c2ccc(F)c(Cl)c2)CC1 (stereo not given)
cytotoxicity at 70.5 h: 5.36%

Cc1nc(N)ncc1C(=O)N1CCCC(CCc2ccc(F)c(F)c2)C1 (stereo not given)
cytotoxicity at 70.5 h: -16.6%

O=S1(=O)C[C@@H]2[C@H](C1)N(Cc1ncc[nH]1)CCN2CCCc1ccccc1
cytotoxicity at 70.5 h: -1.68%

CCOCCn1c(=O)n(Cc2ccc(F)cc2)c2ncc(C(=O)O)cc21
cytotoxicity at 70.5 h: -4.53%

COC(C)(C)CC(C)NCc1cn2ccccc2n1 (stereo not given)
cytotoxicity at 70.5 h: -16.8%

CCc1n[nH]c(C(=O)N2CCC3(CCCN(CCOC)C3=O)C2)c1C (stereo not given)
cytotoxicity at 70.5 h: -9.48%

COc1cc2nc(NCCNS(C)(=O)=O)cc(C)c2cc1OC
cytotoxicity at 70.5 h: -0.473%

COc1ccc(OC)c(C2CCN(c3ccc4cc[nH]c4n3)C2)c1 (stereo not given)
cytotoxicity at 70.5 h: -6.46%

CCC(C)N(Cc1cccnc1)Cc1cc2c(cc1Cl)OCO2 (stereo not given)
cytotoxicity at 70.5 h: -1.59%

O=C(c1cnc(-c2cccnc2)nc1)N1CCSCC1
cytotoxicity at 70.5 h: 21.6%

CC(C)c1noc(Cn2ncn3cccc3c2=O)n1
cytotoxicity at 70.5 h: -6.57%

O=C1CC[C@H]2CN(c3ncc(F)cn3)CC[C@H]2N1CCc1c[nH]cn1
cytotoxicity at 70.5 h: -8.52%

CN(Cc1nccn1C)c1ccc(-c2nccn2C)nn1
cytotoxicity at 70.5 h: 18.2%

COc1ccc(C(=O)C2CCCN(c3cnccn3)C2)c(C)c1 (stereo not given)
cytotoxicity at 70.5 h: -8.1%

CC(C)C(=O)N1CCC(c2nc3c([nH]2)CCCNC3=O)CC1
cytotoxicity at 70.5 h: -6.35%

CSCc1noc(CN(C)C(C)c2nc(C)sc2C)n1 (stereo not given)
cytotoxicity at 70.5 h: 6.01%

CCOc1ccnc(N[C@@H](Cc2ccccc2)C(N)=O)n1
cytotoxicity at 70.5 h: -6.36%

CCCC(=O)N1CCCC(Cn2cc(-c3ccc(F)cc3)nn2)C1 (stereo not given)
cytotoxicity at 70.5 h: -11.1%

O=C(c1ncccc1O)N1CCc2c(ncnc2N2CCOCC2)C1
cytotoxicity at 70.5 h: -4.02%

CC(Cc1cccnc1)Nc1ncnc2cccc(F)c12 (stereo not given)
cytotoxicity at 70.5 h: 1.44%

Cc1cc2ccccc2n1CCC(=O)N1CCC[C@H]1C(N)=O
cytotoxicity at 70.5 h: -6.97%

Cc1nn(C)cc1Cn1c(=O)c(C)nc2ccccc21
cytotoxicity at 70.5 h: -6.18%

O=c1[nH]nc(CNCc2ccc(OC34CCCN(CC3)C4)cc2)[nH]1 (stereo not given)
cytotoxicity at 70.5 h: -4.91%

CCCSCC(=O)N1CCCC2(CCC(=O)N(CCc3c[nH]cn3)C2)C1 (stereo not given)
cytotoxicity at 70.5 h: -5.03%

NC1CCN(S(=O)(=O)c2ccc(C(=O)N3CCSCC3)cc2)C1 (stereo not given)
cytotoxicity at 70.5 h: -9.37%

Cc1ccc(C)c2c(C)c(C(=O)NCCCn3cnnc3)[nH]c12
cytotoxicity at 70.5 h: -6.86%

CNC(=O)C1CCN(Cc2nc(-c3ccc(SC)cc3)oc2C)C1 (stereo not given)
cytotoxicity at 70.5 h: -6.93%

OCCOc1ccccc1CN1CCCC(O)(CO)C1 (stereo not given)
cytotoxicity at 70.5 h: 9.78%

CSCC[C@@H](CO)Nc1ccc(-c2nc(-c3ccccc3C)no2)cn1
cytotoxicity at 70.5 h: -6.4%

CS(=O)(=O)N1CCCC1C(=O)Nc1cnc2n1CCCC2 (stereo not given)
cytotoxicity at 70.5 h: -20.4%

CNC(=O)c1cn2cc(-c3ccc(F)cc3)n(CC=C(C)C)c(=O)c2n1
cytotoxicity at 70.5 h: 19.4%

Cc1cc(CN(C)C(=O)C2CCC(=O)N(CC3CCCCC3)C2)n[nH]1 (stereo not given)
cytotoxicity at 70.5 h: -8.5%

CN(Cc1noc2c1CCCC2)C(=O)Cn1c(=O)cnc2ccccc21
cytotoxicity at 70.5 h: -12.8%

O=C(c1cc(F)cc(Cl)c1)N1CCN(CCO)[C@@H]2CS(=O)(=O)C[C@@H]21
cytotoxicity at 70.5 h: -0.458%

c1csc(N2CCN(Cc3cc4n(n3)CCNC4)CC2)n1
cytotoxicity at 70.5 h: 1.93%

Cc1cnccc1-n1nc(C(C)C)nc1CCN(C)S(C)(=O)=O
cytotoxicity at 70.5 h: -1.14%

O=C1N(Cc2cccc(F)c2F)CCCC1(O)CNCc1ccccn1 (stereo not given)
cytotoxicity at 70.5 h: -2.1%

O=C(c1ccc(C2CCCN2C(=O)c2ccoc2)s1)N1CCOCC1 (stereo not given)
cytotoxicity at 70.5 h: -1.44%

CC(=O)Nc1ccc(Cl)c(C(=O)N(C)C(C)c2nccs2)c1 (stereo not given)
cytotoxicity at 70.5 h: -3.55%

CCOC(=O)N1CCC(NC(=O)c2cccc(C3CCCNC3)c2)CC1 (stereo not given)
cytotoxicity at 70.5 h: -24.4%

O=C(c1cccnc1)N1C[C@@H]2CC[C@H](C1)N(Cc1ccc(F)cc1Cl)C2
cytotoxicity at 70.5 h: 2.53%

CN1CC(c2ccccc2)CC2(CCN(Cc3ncc[nH]3)CC2)C1 (stereo not given)
cytotoxicity at 70.5 h: -9.18%

O=C(CCCN1CCCCC1)N[C@H](C(=O)O)c1cccc(F)c1F
cytotoxicity at 70.5 h: -6.96%

Oc1ccc(-c2c(-c3ccccc3)ncn2C2CCNC2)cc1 (stereo not given)
cytotoxicity at 70.5 h: 6.28%

Cc1cncc(C(=O)N2CCCC(O)(CO)C2)c1 (stereo not given)
cytotoxicity at 70.5 h: -7.18%

CCN(CC)C(CNS(=O)(=O)NCc1ccccc1)c1ccco1 (stereo not given)
cytotoxicity at 70.5 h: -2.25%

N#Cc1cccnc1N1CCCC(CO)(CCOc2ccccc2)C1 (stereo not given)
cytotoxicity at 70.5 h: -7.83%

COc1ccccc1OC1CN(C(=O)Cc2c(C)nc(C)[nH]c2=O)C1
cytotoxicity at 70.5 h: -2.42%

Cc1cc(C)n(C2CN(c3ncnc4c3CCNCC4)C2)n1
cytotoxicity at 70.5 h: -9%

Cc1[nH]c2c(C)ccc(C)c2c1CC(=O)NCCCNc1cccnc1
cytotoxicity at 70.5 h: -9.64%

Cc1ccc(CCNC(=O)Cn2nc(C)n(Cc3ccccc3)c2=O)s1
cytotoxicity at 70.5 h: 3.12%

COCc1cc(NCCc2ccccn2)n2nccc2n1
cytotoxicity at 70.5 h: 29%
